The source of these data is patent publication US20260085036A1 (MiHKAL GmbH, priority 2022, published 2026).

Usually IC50 stands for the point on the concentration scale where inhibition reaches its midpoint.

The nature of data set [1]: Stability study in 1% HCl (representative of gastric acid). In kind it is physicochemical. As to conditions: 37° C., approximately 21 hours, LC-MS. On the procedure: (§1) Three novel compounds i.e., tert-butyl (2,5-dimethoxy-4-methylphenethyl)carbamate (Preparative Example 18), tert-butyl (2,5-dimethoxyphenethyl)carbamate (Preparative Example 7), and N-(3,4,5-Trimethoxyphenethyl-2-hydroxy-acetophenon imine (Preparative Example 17) were tested for their stability in 1% hydrochloric acid (HCl) as well as in phosphate buffers at pH 7.4 and pH 8.0. These conditions were selected to provide insights into the chemical stability of compounds at a pH values similar to conditions within the human body. The diluted hydrochloric acid (pH 1) represents gastric acid within the stomach whereas the potassium phosphate buffers at pH 7.4 and pH 8.0 simulate the conditions in the human blood and small intestine, respectively.
(§2) 4 mg of each test compound was diluted in either HCl solution or phosphate buffer (0.1 M) to give a solution of 1 mg/ml. Regarding the acidic testing with hydrochloric acid, 2 ml of aqueous test compound solutions were then added to 2 ml of 0.64 M HCl, yielding a final HCl concentration of 0.32 M (pH 0.5). Since all compounds tested, represent «free bases», a minimal amount of 100-200 microliters of dimethylsulfoxide (DMSO) has been added to avoid aggregation effects during testing. […] Concentrations of parent compound were analyzed at various timepoints using LC-MS. […]

Data set [2] deals with T1, human DAT (Homo sapiens, UniProt Q01959).
T1 construct: expressed in transfected cells
T1 sequence (Q01959 whole entry): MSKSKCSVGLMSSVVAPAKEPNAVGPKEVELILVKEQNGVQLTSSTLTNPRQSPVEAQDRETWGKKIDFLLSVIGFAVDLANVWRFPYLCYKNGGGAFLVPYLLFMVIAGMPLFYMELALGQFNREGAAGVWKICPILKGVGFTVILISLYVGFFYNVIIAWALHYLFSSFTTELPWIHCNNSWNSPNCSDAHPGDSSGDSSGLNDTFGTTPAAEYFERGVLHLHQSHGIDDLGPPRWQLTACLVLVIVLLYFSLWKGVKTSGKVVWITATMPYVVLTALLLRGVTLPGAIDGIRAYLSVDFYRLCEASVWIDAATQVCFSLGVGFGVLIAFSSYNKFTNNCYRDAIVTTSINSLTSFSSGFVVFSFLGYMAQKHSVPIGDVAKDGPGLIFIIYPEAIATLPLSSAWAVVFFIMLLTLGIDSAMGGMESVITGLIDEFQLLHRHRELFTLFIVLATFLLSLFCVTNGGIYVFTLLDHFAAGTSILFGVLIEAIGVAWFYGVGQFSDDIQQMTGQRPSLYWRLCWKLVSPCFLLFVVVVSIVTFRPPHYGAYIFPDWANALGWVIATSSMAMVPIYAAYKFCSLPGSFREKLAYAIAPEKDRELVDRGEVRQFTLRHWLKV
Kind of data set: Uptake inhibition assay, DAT. In kind it is cell-based. On the procedure:
(§3) Human embryonic kidney (HEK) 293 cells stably expressing human DAT, NET or SERT were maintained in humidified atmosphere (37° C., 5% CO2) in Dulbecco's Modified Eagle Medium (DMEM), supplemented with 10% heat-inactivated fetal calf serum (FCS), streptomycin (100 μg×100 mL^−1) and penicillin (100 U×100 mL^−1). Geneticin (50 μg×mL^−1) was used as selection antibiotic.
(§4) One day before the experiment, HEK293 cells expressing the respective transporters (DAT, NET or SERT) were seeded onto poly-D-lysine coated 96 well plates at a density of 30,000 cells per well in a final volume of 200 μL. For uptake experiments, the cell culture medium was replaced with […] Krebs-HEPES buffer (KHB; 25 mM HEPES, 120 mM NaCl, 5 mM KCl, 1.2 mM CaCl2, 1.2 mM MgSO4, and 5 mM D-glucose, pH 7.3). Then, the buffer was replaced with various concentrations of test compounds for 5 minutes; subsequent to that, 0.1 μM [^3H]5-HT (SERT), 0.1 μM [^3H]dopamine (DAT), or 0.05 μM [^3H]MPP^+ (NET) in KHB was added to yield a total volume of 50 μL in the well. For determination of non-specific uptake, paroxetine was used in case of SERT (3 μM), vanoxerine (also known as GBR12909) for DAT and NET (50 μM).
(§5) Uptake was terminated after 60 s (SERT) or 180 s (DAT, NET) by washing the cells with 200 μL ice-cold KHB. Subsequently, the cells were lysed with 200 μL Ultima Gold™ XR liquid scintillation cocktail, and the amount of tritium in the cells was measured with a Wallac 1450 MicroBeta® TriLux liquid scintillation counter. Monoamine uptake data were fitted by nonlinear regression, Vmax and Km values were calculated from Michaelis Menten's least-squares fit with GraphPad Prism (Prism 9.0.2, GraphPad Software, San Diego, CA, USA).
(§6) RT054 and RT056 were tested in both uptake inhibition and release assays, and the corresponding prodrug AM176 was tested in uptake inhibition assays. AM176 was tested either as the undecomposed prodrug or after treatment with 0.5% HCl at 37° C. for 24 hours in order to simulate digestion of the prodrug by gastric acid inside the body after peroral administration.

The target of data set [3] is T2, human NET (Homo sapiens, UniProt P23975).
T2 construct: expressed in transfected cells
T2 sequence (P23975 whole entry): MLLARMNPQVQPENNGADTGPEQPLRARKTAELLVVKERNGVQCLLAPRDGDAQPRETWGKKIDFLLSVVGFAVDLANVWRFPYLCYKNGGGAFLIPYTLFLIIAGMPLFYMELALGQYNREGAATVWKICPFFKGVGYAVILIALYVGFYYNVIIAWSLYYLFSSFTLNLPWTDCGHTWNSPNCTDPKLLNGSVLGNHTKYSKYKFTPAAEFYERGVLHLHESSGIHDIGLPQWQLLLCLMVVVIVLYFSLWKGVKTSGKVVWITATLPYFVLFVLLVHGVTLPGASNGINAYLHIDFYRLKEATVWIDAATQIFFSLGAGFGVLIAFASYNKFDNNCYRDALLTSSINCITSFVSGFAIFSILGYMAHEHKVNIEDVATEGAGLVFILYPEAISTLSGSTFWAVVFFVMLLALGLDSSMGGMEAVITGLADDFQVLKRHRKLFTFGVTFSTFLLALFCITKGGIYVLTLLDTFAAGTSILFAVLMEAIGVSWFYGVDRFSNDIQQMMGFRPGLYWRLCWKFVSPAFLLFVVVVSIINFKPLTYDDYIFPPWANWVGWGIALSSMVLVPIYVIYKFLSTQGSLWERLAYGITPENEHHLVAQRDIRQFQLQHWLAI
In words: Uptake inhibition assay, NET. In kind it is cell-based. On the procedure: as §3, §4, §5, §6

For data set [4], the target named is T3, human SERT (Homo sapiens, UniProt P31645).
T3 construct: expressed in transfected cells
T3 sequence (P31645 whole entry): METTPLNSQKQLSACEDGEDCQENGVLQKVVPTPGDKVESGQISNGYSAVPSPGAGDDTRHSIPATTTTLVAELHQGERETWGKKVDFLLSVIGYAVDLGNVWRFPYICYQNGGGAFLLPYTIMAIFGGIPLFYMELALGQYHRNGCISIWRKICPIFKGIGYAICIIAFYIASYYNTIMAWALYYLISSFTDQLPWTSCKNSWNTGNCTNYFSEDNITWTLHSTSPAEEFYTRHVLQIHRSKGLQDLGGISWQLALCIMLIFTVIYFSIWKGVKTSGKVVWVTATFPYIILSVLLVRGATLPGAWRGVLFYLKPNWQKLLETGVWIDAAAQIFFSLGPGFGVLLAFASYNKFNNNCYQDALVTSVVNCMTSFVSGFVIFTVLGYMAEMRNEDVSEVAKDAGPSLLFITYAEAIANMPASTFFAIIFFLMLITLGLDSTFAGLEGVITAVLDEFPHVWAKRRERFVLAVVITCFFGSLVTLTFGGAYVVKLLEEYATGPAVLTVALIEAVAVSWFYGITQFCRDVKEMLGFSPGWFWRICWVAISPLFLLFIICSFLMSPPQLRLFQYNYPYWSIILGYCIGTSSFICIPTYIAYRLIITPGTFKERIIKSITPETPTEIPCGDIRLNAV
In words: Uptake inhibition assay, SERT. In kind it is cell-based. On the procedure:
as §3, §4, §5, §6

The conditions of data set [5]: patients; cited from earlier work.
The nature of data set [6]: Stability study in phosphate buffers pH 7.4 and pH 8.0. As to conditions: phosphate buffer pH 7.4/pH 8.0, 37° C. In kind it is physicochemical. On the procedure:
as §1, §2

For data set [7] the following is noted: cited from earlier work.
The mark [8] stands for this setting: HEK293 cells stably expressing DAT, [3H]dopamine.
Setting [9] is: HEK293 cells stably expressing NET, [3H]MPP+.
Where [10] appears, read: HEK293 cells stably expressing SERT, [3H]5-HT.

Consider `COc1cc(CC/N=C(\C)c2ccccc2O)cc(OC)c1OC`, for which the “Degradation in 1% HCl to the corresponding drug” value in data set [1] is listed as “more retarded degradation behavior”.

As to `CC(Cc1ccc2c(c1)OCS2)N(C)C(=O)OC(C)(C)C` (centres unmarked) [AM176, tert-butyl (1-benzo[d][1,3]oxathiole-6-yl)propan-2-yl(methyl)carbamate], the IC50 in data set [2] (HCl-treated (0.5% HCl at 37° C. for 24 hours), HEK293 cells expressing DAT) was 3.4 µM; in data set [3] (HCl-treated (0.5% HCl at 37° C. for 24 hours), HEK293 cells expressing NET) it was 9.2 µM; in data set [4] (HCl-treated (0.5% HCl at 37° C. for 24 hours), HEK293 cells expressing SERT), 18.3 µM. For the same compound, the “Interaction with DAT in uptake inhibition assay (in words)” value in data set [2] (after pre-treatment with HCl) is given as “inhibits substrate-uptake via all monoamine transporters in a competitive manner”; in data set [2] (without pre-treatment with HCl), “no interaction”. The “Interaction with NET in uptake inhibition assay (in words)” value is recorded as “inhibits substrate-uptake via all monoamine transporters in a competitive manner” in data set [3] (after pre-treatment with HCl) and “no interaction” in data set [3] (without pre-treatment with HCl). Moreover, the “Interaction with SERT in uptake inhibition assay (in words)” value in data set [4] (after pre-treatment with HCl) is on record as “inhibits substrate-uptake via all monoamine transporters in a competitive manner”; in data set [4] (without pre-treatment with HCl), “no interaction”.

`COc1cc(CCN)cc(OC)c1OC` [Mescaline, mescaline]: the “oral dose to cause the desired psychedelic state” value in data set [5] was “over 200 mg”.

For `COc1ccc(OC)c(CCNC(=O)OC(C)(C)C)c1` [Preparative Example 7, tert.-butyl-(2,5-Dimethoxyphenethyl)carbamate], in data set [6], the “Degradation at neutral and basic conditions” value was “complete stability”.

On to `COc1cc(CCNC(=O)OC(C)(C)C)c(OC)cc1C` [Preparative Example 18, t-butyl-(2,5-Dimethoxy-4-methylphenethyl)carbamate], for which, in data set [6], the “Degradation at neutral and basic conditions” value is “complete stability”.

As for `CC(N)Cc1ccc2c(c1)OCS2` (centres unmarked) [RT054, Benzoxathiol-6-yl-propan-2-amine, reference compound], the IC50 in data set [2] (setting [8]) amounted to 1.3 µM; in data set [3] (setting [9]) it was 0.8 µM; in data set [4] (setting [10]), 3.6 µM.

Take `CNC(C)Cc1ccc2c(c1)OCS2` (centres unmarked) [RT056, Benzoxathiol-6-yl-N-methyl-propan-2-amine]: the IC50 in data set [2] (setting [8]) was determined as 0.9 µM; in data set [3] (setting [9]) it was 1.8 µM; in data set [4] (setting [10]), 4.5 µM.

In the case of `NCCc1ccccc1` [phenethylamine (PEA), phenethylamine], the “half-life after oral consumption” value in data set [7] was “approximately 10 minutes”.
